The values that follow come from patent publication US8337899B2, “Solid pharmaceutical dispersions with enhanced bioavailability” (Bend Research, Inc., priority 1997, dated 2012).

Each structure is given as a SMILES string.

Data set [1] can be described thus: centrifuge in vitro dissolution test in MFD solution. The class given is physicochemical. To be noted: centrifuge method; for MSSC (maximum supersaturated concentration): MFD solution pH 6.5, 37° C., supernatant; for C90: concentration at 90 minutes; for C1200: concentration at 1200 minutes. The method, then: This example discloses an in vitro dissolution test termed the “centrifuge” method. This method was used to test the dissolution of material made by essentially the same method as that described in Example 1 except that the concentration of Compound 1 was decreased by a factor of 2 to 66.5 mg such that the ratio of compound to polymer was 1:1. (see Example 7, Table I).
In a 37° C. controlled temperature box, 1.8 mg of solid product from Example 1 was accurately weighed into an empty microcentrifuge tube (polypropylene, Sorenson Bioscience Inc.). The theoretical maximum concentration of compound in solution (e.g., if all compound dissolved) was 383 μgA/ml [1.8 mg dispersion (1000 μg/1 mg) (0.5 μg compound/μg dispersion) (0.764 compound assay)/1.8 ml=[…]]. This value is termed the theoretical maximum supersaturated concentration and is abbreviated Theoretical MSSC. 1.8 mL of a 37C phosphate buffered saline solution (8.2 mM NaCl, 1.1 mM Na2HPO4, 4.7 mM KH2PO4, pH 6.5, 290 mOsm/kg) containing 14.7 mM sodium taurocholic acid (Fluka) and 2.8 mM 1-palmitoyl-2-oleoyl-sn-glycero-3-phosphocholine (Avanti Polar Lipids) was added to the tube. The centrifuge tube was closed and a timer was started. The tube was then mixed continuously at the highest speed on a vortex mixer (Fisher Vortex Genie 2) for 60 seconds. The tube was transferred to a centrifuge (Marathon, Model Micro A) allowed to stand undisturbed for six minutes, then centrifuged at 13,000 G for 60 seconds. A 25 uL sample was removed from the solids-free supernatant in the centrifuge tube via pipette (Gilson Pipetman P-100) ten minutes after the timer was started. Solids in the centrifuge tube were resuspended by mixing the sample continuously on the vortex mixer for 30 seconds. The centrifuge tube was returned to the centrifuge and allowed to stand undisturbed until the next sample was taken. Each sample was centrifuged, sampled and resuspended as described previously. Each sample was diluted 1:1 with a solution containing 60/40 1.7 wt % ammonium ascorbate/acetonitrile, and the concentration of compound was determined by HPLC (Hewlett Packard 1090 HPLC, Phenomenex Ultracarb ODS 20 analytical column, absorbance measured at 215 nm with a diode array spectrophotometer). […] […] The maximum compound concentration observed, 125 μgA/ml, is termed the maximum supersaturated concentration of compound and is abbreviated MSSC.

Data set [2] is described as follows: syringe/filter in vitro dissolution test in MFD solution. To be noted: for C90: concentration at 90 minutes; for MSSC (maximum supersaturated concentration): syringe/filter method, MFD solution pH 6.5, 37° C., 0.45 μm filtrate. The class given is physicochemical. The method, then:
This example discloses an in vitro dissolution test termed the “syringe/filter” method. In this method the concentration of test compound in solution is determined as a function of time. Test solution is held in a syringe from which samples are expelled through a filter at pre-determined time points. In between expelling samples from the syringe, the syringe is rotated (50 rpm) on a wheel held in an oven at 37° C.
A 20 GA hypodermic needle was attached to the syringe, and 10 mL of a model-fasted duodenal (MFD) solution at 37° C. was drawn into the syringe.
The MFD solution was prepared using the following procedure. […] This mixture was then mixed thoroughly by vortex mixer (Fisher Vortex Genie), and the solvent removed rapidly by roto-evaporator (Rotavapor RE121, Büchi), leaving a dry white surface dispersion coating the flask. The surface dispersion was then reconstituted with 200 mL of the 37° C. phosphate buffered saline.
The needle was then replaced with a 13 mm, 0.45 μm polyvinylidine diflouride syringe filter (Scientific Resources, Titan), and the syringe was vigorously shaken for 30 sec. After 30 sec, 6 drops of the solution was expelled and a subsequent 13 drop sample was delivered to a test tube. After expelling the sample, the syringe plunger was drawn back to pull an air bubble into the syringe to aid in subsequent mixing and the syringe placed back on a rotating wheel in a 37° C. oven. […] The remaining solution in the syringe was mixed by rotating on a wheel at 50 rpm in a 37° C. temperature-controlled box.

For data set [3] the following is noted: solid amorphous dispersions in HPMCAS, pH 4.0; cited from earlier work.
A further data set can be described thus: aqueous solubility. The class given is physicochemical. The settings on record: pH 6.5.

As for `O=C(N[C@@H](Cc1ccccc1)[C@@H](O)C(=O)N1C[C@@H](O)[C@@H](O)C1)c1cc2cc(Cl)ccc2[nH]1` (relative stereo) [Example C17, 1H-Indole-2-caboxamide, 5-chloro-N-[3-(3,4-dihydroxy-1-pyrrolidinyl)-2-hydroxy-3-oxo-1-(phenylmethnyl)propyl]-, [R—[R*,S*-(cis)]]-], in data set [1], the “MSSC (maximum supersaturated concentration)” value (“MSSC” for short) was 194 μgA/mL, the C90 is recorded as 158 μgA/mL and the C1200 came out at 194 μgA/mL.
In the case of `CON(C)C(=O)C(O)[C@H](Cc1ccccc1)NC(=O)c1cc2cc(Cl)ccc2[nH]1` (stereo in doubt) [Compound 1, [R—(R*,S*)]-5-chloro-N-[2-hydroxy-3-(methoxymethylamino)-3-oxo-1-(phenylmethyl)propyl]-1-H-indole-2-carboxamide], the equilibrium solubility in data set [2] (in the dissolution medium (MFD)) was 9 μgA/ml.
On to `CON(C)C(=O)C(O)[C@H](Cc1ccccc1)NC(=O)c1cc2cc(Cl)ccc2[nH]1` (stereo in doubt) [Example C1, [R—(R*,S*)]-5-chloro-N-[2-hydroxy-3-(methoxymethylamino)-3-oxo-1-(phenylmethyl)propyl]-1-H-indole-2-carboxamide], for which the C90 in data set [2] (syringe/filter, MFD, 37° C.) came out at 10 μgA/mL. Further, in data set [2] (concentration at 180 minutes, syringe/filter, MFD, 37° C.), the C180 came out at 8.5 μgA/mL. Moreover, the C1200 in data set [2] (concentration at 1200 minutes, syringe/filter, MFD, 37° C.) came out at 9 μgA/mL. Also, in data set [2], the “MSSC” value was found to be 10 μgA/mL.
As for `CCC(CC)Oc1cc(C)nc(Oc2c(C)cc(C)cc2C)c1C` [Example C5], in data set [1], the “MSSC” value is recorded as 18 μgA/mL, the C90 is listed as 18 μgA/mL and the C1200 is given as 13 μgA/mL.
Consider `COC1=CC(=O)CC(C)C12Oc1c(Cl)c(OC)cc(OC)c1C2=O` (stereo not drawn) [Example C11, 7-chloro-4,6-dimethoxy-courmaran-3-one-2-spiro-1′-(2′-methoxy-6′-methylcyclohex-2′en-4′-one)], for which the C60 in data set [2] (concentration at 60 minutes, syringe/filter, MFD, 37° C.) is 17 μgA/mL. In data set [2] (syringe/filter, MFD, 37° C.), the C90 stood at 15 μgA/mL. The “MSSC” value in data set [2] was 18 μgA/mL.
Consider `O=C1NC(=O)C(c2ccccc2)(c2ccccc2)N1` [Example C14, 5,5-diphenylhydantoin], for which the C3 in data set [1] (concentration at 3 minutes) was 14 μgA/mL. The C10 in data set [1] (concentration at 10 minutes) was 20 μgA/mL. In data set [1] (concentration at 20 minutes), this molecule registered a C20 of 28 μgA/mL. This molecule returned a C40 in data set [1] (concentration at 40 minutes) of 34 μgA/mL. The same molecule came in with a C90 in data set [1] of 50 μgA/mL.
In the case of `CCC(CC)Nc1cc(C)nc(Oc2c(C)cc(C)cc2C)c1C` [Example C16, [3,6-dimethyl-2-(2,4,6-trimethyl-phenoxy)-pyridin-4-yl]-(1-ethyl-propyl)-amine], in data set [1], the “MSSC” value amounted to 22 μgA/mL, the C90 was found to be 22 μgA/mL and the C1200 is on record as 22 μgA/mL.
For the molecule `CC[C@H]1OC(=O)C[C@@H](O)[C@H](C)[C@@H](O[C@@H]2O[C@H](C)[C@@H](O[C@H]3C[C@@](C)(O)[C@@H](OC(=O)Cc4ccc(OC)cc4)[C@H](C)O3)[C@H](N(C)C)[C@H]2O)[C@@H](CC=O)C[C@@H](C)C(=O)/C=C/C(C)=C/[C@@H]1CO[C@@H]1O[C@H](C)[C@@H](O)[C@@H](OC)[C@H]1OC` [MAT, 4″-0-(4-methoxyphenyl)acetyltylosin], the “supersaturated concentration relative to crystalline MAT” value in data set [3] was 9 fold.
Turning to `Cc1ccc2c(c1)N(CC(=O)NC(C)(C)C)C(=O)C(NC(=O)Nc1cccc(Cl)c1)CC2c1ccccc1` (stereo not drawn) [N-tert-butyl-2-{3-[3-(3-chloro-phenyl)-unreido]-8-methyl-2-oxo-5-phenyl-2,3,4,5-tetrahydrobenxo[b]azepin-1-yl}-acetamide], the aqueous solubility result in the data set “aqueous solubility” is recorded as “less than 3.0 μg/ml”.
